PMC5293596 (Chemical research in toxicology, 2016)

Experiments:
[1] = target: T1, P450 2A6 (Homo sapiens, UniProt P11509); assay: Oxidation by P450 2A6 bicistronic membranes, HPLC; conditions: product peaks only with NADPH-generating system
T1 sequence (P11509 1-494): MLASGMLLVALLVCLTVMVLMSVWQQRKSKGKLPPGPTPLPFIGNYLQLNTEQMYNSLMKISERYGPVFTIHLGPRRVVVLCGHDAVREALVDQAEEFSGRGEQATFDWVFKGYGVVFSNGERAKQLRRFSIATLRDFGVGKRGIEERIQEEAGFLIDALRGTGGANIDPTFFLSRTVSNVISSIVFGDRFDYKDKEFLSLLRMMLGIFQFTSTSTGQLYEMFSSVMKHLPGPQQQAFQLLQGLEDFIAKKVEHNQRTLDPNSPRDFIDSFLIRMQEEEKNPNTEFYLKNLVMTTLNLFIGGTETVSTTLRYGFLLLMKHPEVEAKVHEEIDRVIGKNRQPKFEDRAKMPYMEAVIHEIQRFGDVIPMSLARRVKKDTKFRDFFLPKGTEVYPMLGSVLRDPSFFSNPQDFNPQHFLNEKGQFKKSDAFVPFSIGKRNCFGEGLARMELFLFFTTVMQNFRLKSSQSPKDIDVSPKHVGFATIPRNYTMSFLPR

[2] = tested on: P450 2A13; assay: Spectral binding titration; design: species or system human; conditions: P450 2A13 vs P450 2A6
[3] = target: T2, P450 2A13 (Homo sapiens, UniProt Q16696); assay: Oxidation by P450 2A13 bicistronic membranes, HPLC; conditions: for metabolism (HPLC): product peaks only with NADPH-generating system; for Formation of oxygenated products on LC-MS analysis: results not shown
T2 sequence (Q16696 1-494): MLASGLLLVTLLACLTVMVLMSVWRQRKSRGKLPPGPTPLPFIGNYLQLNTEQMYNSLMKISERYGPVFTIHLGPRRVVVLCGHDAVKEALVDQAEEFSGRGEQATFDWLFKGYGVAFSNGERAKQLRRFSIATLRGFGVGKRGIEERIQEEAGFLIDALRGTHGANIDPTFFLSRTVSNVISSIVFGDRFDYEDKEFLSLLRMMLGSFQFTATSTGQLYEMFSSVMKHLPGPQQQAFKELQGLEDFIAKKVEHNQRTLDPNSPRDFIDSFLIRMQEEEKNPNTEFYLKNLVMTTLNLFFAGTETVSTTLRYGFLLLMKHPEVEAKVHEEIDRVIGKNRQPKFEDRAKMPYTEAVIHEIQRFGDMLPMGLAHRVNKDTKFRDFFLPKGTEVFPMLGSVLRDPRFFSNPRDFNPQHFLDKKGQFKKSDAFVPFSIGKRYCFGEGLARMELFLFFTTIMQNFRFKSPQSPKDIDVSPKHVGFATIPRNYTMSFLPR

[4] = target: T3, P450 1B1 (Homo sapiens, UniProt Q16678, L432V); assay: 7-Ethoxyresorufin O-deethylation by P450 1B1
T3 sequence (Q16678 1-543 L432V): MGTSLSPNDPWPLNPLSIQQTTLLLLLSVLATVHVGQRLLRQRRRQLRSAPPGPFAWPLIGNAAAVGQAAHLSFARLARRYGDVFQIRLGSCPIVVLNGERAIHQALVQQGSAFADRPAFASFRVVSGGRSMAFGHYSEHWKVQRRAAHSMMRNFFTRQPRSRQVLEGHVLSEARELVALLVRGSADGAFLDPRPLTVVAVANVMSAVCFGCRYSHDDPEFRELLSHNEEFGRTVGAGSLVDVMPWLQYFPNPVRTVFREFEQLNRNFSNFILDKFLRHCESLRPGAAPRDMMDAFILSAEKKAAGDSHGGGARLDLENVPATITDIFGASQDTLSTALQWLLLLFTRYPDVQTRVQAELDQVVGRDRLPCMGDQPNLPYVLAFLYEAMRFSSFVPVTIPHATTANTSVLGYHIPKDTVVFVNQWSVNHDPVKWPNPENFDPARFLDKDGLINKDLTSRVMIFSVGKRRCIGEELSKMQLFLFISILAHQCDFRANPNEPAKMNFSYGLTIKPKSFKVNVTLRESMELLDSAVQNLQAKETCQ

[5] = target: T4, P450 1A1 (Homo sapiens, UniProt P04798); assay: 7-Ethoxyresorufin O-deethylation by P450 1A1
T4 sequence (P04798 1-512): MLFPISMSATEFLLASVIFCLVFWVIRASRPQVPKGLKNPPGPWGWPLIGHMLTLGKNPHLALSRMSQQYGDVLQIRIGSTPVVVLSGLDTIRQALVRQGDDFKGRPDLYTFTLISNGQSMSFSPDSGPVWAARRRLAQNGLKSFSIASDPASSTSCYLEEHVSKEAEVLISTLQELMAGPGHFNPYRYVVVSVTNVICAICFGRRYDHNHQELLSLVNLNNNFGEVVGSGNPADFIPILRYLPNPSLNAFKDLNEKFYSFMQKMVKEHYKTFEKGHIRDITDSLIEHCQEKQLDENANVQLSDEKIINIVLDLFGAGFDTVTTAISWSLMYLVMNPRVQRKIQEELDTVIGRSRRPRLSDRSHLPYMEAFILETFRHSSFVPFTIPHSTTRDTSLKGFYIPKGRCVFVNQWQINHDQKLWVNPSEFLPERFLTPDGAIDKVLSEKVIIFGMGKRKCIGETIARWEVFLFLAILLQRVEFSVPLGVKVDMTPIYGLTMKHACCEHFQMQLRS

[6] = target: T5, P450 1A2 (Homo sapiens, UniProt P05177); assay: 7-Ethoxyresorufin O-deethylation by P450 1A2
T5 sequence (P05177 1-516): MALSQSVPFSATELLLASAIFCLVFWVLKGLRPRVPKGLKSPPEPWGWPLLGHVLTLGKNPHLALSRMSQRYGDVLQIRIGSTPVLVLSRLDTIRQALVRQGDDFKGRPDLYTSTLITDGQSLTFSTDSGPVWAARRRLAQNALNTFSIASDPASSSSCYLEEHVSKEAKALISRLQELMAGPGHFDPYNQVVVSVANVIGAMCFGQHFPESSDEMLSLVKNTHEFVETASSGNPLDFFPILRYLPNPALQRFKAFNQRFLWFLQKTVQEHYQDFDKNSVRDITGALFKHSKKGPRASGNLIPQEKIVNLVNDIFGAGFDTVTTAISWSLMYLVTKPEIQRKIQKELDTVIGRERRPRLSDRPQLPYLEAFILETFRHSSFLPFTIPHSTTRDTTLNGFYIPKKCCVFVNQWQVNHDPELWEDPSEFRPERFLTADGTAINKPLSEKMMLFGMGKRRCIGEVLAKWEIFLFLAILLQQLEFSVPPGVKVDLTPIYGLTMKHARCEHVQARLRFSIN

[7] = target: T1, P450 2A6; assay: Spectral binding titration; conditions: P450 2A6 1.0 μM, pH 7.4; means and S.E.
[8] = target: T2, P450 2A13; assay: Spectral binding titration; conditions: P450 2A13
[9] = target: T6, P450 1B1 (1B1.3, L432V) (Homo sapiens, UniProt Q16678, L432V); assay: Oxidation by P450 1B1 bicistronic membranes, HPLC; conditions: P450 1B1.3; Figure 5
T6 sequence (Q16678 1-543 L432V): T3 sequence (Q16678 1-543 L432V)

[10] = target: T5, P450 1A2; assay: Oxidation by P450 1A2 bicistronic membranes, HPLC; conditions: Figure 5

Structure (SMILES)	metabolism (HPLC) [1]	metabolism (HPLC) [3]	further results
C#Cc1ccc2ccccc2c1 [2EN, 2-ethynylnaphthalene]	yes	yes	ΔAmax/Ks ratio with P450 2A13 relative to that with P450 2A6 [2]: about 10 fold
C#Cc1ccc(-c2ccccc2)cc1 [4EB, 4-ethynylbiphenyl]	not detected	not detected	
C#CCOc1ccccc1-c1ccccc1 [2BPE, 2-biphenyl propargyl ether]		yes	
CCOc1ccc2nc3ccc(=O)cc-3oc2c1 [7-ethoxyresorufin]			Catalytic activity, 7-ethoxyresorufin O-deethylation (nmol product formed/min/nmol P450) [4]: 14 min⁻¹; Catalytic activity, 7-ethoxyresorufin O-deethylation (nmol product formed/min/nmol P450) [5]: 35 min⁻¹; Catalytic activity, 7-ethoxyresorufin O-deethylation (nmol product formed/min/nmol P450) [6]: 3.2 min⁻¹
CC#Cc1ccc2ccc3ccccc3c2c1 [3PPh, 3-(1-propynyl)phenanthrene]		yes	Type I spectra Ks (spectral dissociation constant) [7]: ND (10 μM)
CC#Cc1ccc(-c2ccccc2)cc1 [4PB, 4-propynylbiphenyl]		not detected	
C#Cc1cc2ccccc2c2ccccc12 [9EPh, 9-ethynylphenanthrene]		not detected	Type I spectra Ks (spectral dissociation constant) [7]: ND (10 μM)
C#CCOc1ccccc1-c1ccccc1OCC#C [22BDPE, 2,2′-biphenyl dipropagyl ether]		not detected	
C#CCOc1ccc(-c2ccc(OCC#C)cc2)cc1 [44BDPE, 4,4′-biphenyl dipropargyl ether]	not detected	not detected	
c1ccc2c(c1)ccc1ccccc12 [phenanthrene]	yes	yes	ΔAmax of Type I binding spectral change [8]: 0.063
CC#Cc1ccc2c(ccc3ccccc32)c1 [2PPh, 2-(1-propynyl)phenanthrene]	yes	yes	
CCC#Cc1ccc(-c2ccccc2)cc1 [4BuB, 4-butynylbiphenyl]		not detected	
C#CCOc1ccc(-c2ccccc2)cc1 [4BPE, 4-biphenyl propargyl ether]	yes	yes	
C#Cc1ccc2c(ccc3ccccc32)c1 [2EPh, 2-ethynylphenanthrene]	yes	yes	Oxidation (product formation on HPLC) [9]: oxidized 2EPh at lower levels than P450s 2A13 and 2A6; Oxidation (product formation on HPLC) [10]: oxidized 2EPh at lower levels than P450s 2A13 and 2A6; Formation of oxygenated products on LC-MS analysis [3]: formation of oxygenated products
C#Cc1ccc2ccc3ccccc3c2c1 [3EPh, 3-ethynylphenanthrene]	yes	yes	Formation of oxygenated products on LC-MS analysis [3]: formation of oxygenated products
C#CCOCc1ccccc1-c1ccccc1 [2BMPE, 2-biphenyl methyl propargyl ether]		not detected	
C#CCOCc1ccc(-c2ccccc2)cc1 [4BMPE, 4-biphenyl methyl propargyl ether]		not detected	
c1ccc(-c2ccccc2)cc1 [biphenyl]	yes	yes	ΔAmax of Type I binding spectral change [8]: 0.045
CC#Cc1cc2ccccc2c2ccccc12 [9PPh, 9-(1-propynyl)phenanthrene]		not detected	
